The target of test [1] is T1, NanoLuc-ULK2 (NanoBRET) (Homo sapiens, UniProt Q8IYT8).
T1 sequence (Q8IYT8 1-1036): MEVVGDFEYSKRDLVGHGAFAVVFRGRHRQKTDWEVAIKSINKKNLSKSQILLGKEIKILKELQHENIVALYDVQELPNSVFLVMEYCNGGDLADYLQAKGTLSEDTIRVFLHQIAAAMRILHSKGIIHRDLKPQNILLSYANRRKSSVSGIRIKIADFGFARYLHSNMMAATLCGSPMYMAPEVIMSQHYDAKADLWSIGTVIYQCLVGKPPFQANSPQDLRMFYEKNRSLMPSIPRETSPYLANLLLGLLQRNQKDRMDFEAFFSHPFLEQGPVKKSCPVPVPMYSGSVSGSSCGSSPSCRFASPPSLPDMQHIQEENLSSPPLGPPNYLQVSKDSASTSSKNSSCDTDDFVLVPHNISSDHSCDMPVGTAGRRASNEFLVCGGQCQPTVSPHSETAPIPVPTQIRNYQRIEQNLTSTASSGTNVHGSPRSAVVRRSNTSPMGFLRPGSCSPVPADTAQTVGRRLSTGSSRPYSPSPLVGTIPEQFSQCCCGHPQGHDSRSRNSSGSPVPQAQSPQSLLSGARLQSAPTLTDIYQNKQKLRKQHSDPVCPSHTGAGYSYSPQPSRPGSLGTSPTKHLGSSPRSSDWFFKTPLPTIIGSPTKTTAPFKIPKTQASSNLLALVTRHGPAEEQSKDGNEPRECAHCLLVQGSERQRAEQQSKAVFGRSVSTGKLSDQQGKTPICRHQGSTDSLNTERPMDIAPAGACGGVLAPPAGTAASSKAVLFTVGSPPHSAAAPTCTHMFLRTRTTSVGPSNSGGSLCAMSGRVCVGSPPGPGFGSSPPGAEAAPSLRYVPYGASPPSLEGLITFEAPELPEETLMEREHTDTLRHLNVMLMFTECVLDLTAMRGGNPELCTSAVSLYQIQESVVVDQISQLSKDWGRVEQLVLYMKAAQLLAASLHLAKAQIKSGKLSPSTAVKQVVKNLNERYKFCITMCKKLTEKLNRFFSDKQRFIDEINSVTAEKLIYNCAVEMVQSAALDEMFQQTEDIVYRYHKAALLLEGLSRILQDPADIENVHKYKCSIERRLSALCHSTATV
Kind of test: NanoBRET tracer displacement in live HEK293T cells. It is filed as cell-based.

Test [2] addresses T2, ULK2 (recombinant human ULK2 protein 1-478, ADP-Glo) (Homo sapiens, UniProt Q8IYT8).
T2 sequence (Q8IYT8 1-478): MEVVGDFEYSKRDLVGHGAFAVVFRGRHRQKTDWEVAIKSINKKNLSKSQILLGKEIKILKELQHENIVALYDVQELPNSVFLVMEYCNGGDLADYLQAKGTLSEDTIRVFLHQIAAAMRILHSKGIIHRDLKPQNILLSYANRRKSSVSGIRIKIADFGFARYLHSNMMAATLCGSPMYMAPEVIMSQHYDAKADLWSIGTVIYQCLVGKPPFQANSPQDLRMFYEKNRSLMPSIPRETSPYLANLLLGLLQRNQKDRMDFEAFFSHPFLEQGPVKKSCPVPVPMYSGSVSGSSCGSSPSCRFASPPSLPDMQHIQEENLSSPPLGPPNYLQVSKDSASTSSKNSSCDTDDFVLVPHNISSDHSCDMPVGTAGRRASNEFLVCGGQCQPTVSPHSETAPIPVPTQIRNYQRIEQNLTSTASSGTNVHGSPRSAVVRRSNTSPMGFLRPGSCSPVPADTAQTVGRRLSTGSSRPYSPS
Kind of test: ADP-Glo kinase assay. It is filed as biochemical. (In general: ADP-Glo turns the ADP formed in a reaction into a luminescent signal.)

Test [3] concerns the target T1, NanoLuc-ULK2 (NanoBRET). In words: cell-based. Also noted: species or system HEK293T.
Test [4] has as its target T2, ULK2 (recombinant human ULK2 protein 1-478, ADP-Glo). Kind of test: biochemical.
For test [5], the target named is T3, ULK2 kinase domain (1-276) (Homo sapiens, UniProt Q8IYT8).
T3 sequence (Q8IYT8 1-276): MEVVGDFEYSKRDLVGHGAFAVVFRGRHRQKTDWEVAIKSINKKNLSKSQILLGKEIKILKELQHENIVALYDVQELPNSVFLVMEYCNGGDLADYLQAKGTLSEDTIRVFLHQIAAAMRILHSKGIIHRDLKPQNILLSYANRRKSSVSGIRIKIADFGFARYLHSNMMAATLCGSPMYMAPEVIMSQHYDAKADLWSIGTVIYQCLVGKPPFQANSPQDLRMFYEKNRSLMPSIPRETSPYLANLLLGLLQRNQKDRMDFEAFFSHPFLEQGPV
In words: biochemical. The following applies: read-out: ULK2 PTS (ºC).

Test [6] concerns the target T4, ULK1 (recombinant human ULK1 protein 1-649, ADP-Glo) (Homo sapiens, UniProt O75385).
T4 sequence (O75385 1-649): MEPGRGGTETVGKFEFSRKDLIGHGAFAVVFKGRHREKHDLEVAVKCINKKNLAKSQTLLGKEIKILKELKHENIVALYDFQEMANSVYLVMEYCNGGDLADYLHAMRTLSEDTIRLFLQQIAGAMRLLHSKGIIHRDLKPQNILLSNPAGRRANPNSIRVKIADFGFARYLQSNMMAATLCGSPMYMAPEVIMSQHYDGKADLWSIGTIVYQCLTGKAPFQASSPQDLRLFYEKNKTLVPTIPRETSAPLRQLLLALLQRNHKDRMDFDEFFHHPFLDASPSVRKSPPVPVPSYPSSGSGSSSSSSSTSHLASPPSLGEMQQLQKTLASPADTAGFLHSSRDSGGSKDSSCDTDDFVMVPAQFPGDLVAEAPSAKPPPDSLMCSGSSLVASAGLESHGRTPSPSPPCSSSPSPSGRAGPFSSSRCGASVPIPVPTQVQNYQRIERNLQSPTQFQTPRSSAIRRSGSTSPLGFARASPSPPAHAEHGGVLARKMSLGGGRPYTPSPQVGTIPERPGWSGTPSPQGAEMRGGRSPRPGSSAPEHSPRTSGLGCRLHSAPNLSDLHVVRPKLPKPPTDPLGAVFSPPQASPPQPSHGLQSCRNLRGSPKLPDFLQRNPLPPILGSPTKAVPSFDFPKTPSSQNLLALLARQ
In words: ADP-Glo kinase assay. The format is biochemical.

A further test concerns the target T5, NanoLuc-ULK1 (NanoBRET) (Homo sapiens, UniProt O75385).
T5 sequence (O75385 1-1050): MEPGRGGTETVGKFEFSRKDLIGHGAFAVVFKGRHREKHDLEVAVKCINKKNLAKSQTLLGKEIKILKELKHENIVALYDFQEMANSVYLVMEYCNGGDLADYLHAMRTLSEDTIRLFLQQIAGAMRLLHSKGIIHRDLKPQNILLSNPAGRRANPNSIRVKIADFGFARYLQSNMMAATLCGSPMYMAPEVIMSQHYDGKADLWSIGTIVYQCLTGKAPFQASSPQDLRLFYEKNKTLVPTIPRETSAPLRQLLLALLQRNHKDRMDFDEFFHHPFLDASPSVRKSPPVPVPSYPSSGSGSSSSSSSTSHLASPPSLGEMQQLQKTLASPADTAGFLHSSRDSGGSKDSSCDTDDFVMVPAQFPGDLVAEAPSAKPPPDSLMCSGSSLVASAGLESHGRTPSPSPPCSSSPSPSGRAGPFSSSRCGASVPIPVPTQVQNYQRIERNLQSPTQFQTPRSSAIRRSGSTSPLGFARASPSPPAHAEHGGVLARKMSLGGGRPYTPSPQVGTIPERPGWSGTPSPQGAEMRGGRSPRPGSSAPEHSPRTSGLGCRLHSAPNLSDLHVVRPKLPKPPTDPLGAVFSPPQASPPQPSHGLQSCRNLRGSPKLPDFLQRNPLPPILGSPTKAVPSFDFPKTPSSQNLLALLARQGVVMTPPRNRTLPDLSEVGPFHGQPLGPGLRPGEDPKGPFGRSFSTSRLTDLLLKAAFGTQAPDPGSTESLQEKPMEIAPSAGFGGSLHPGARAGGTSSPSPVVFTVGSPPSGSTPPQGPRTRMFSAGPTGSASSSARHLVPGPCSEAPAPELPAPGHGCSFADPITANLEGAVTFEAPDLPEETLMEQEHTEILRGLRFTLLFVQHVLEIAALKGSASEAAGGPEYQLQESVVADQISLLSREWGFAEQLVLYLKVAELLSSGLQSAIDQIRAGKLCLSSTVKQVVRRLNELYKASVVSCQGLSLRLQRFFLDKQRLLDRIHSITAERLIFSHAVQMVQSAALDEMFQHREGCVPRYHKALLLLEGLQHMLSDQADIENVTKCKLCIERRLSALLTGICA
In words: NanoBRET tracer displacement in live HEK293T cells. The format is cell-based. On the technique in general: BRET reads energy transfer from a luciferase to a nearby fluorophore.

Where a name gives a salt, the structure may show the parent alone. A value given as a limit tells only on which side of the number the result lay.

Broadly, the IC50 is the concentration needed to halve the response being measured.

As to `COc1cc(Nc2ncc(C(F)(F)F)c(NC3CC3)n2)cc(OC)c1OC` [compound 1], the IC50 on NanoLuc-ULK2 (NanoBRET) [1] worked out at 172 ± 33 nM; in test [2] it was 64 ± 22 nM.
The matching figures for `O=C1CCc2cc(Nc3ncc(C(F)(F)F)c(NC4CC4)n3)ccc2N1` [compound 2, 6-((4-(Cyclopropylamine)-5-(trifluoromethyl)pyrimidine-2-yl)amino)-3,4-dihydroquinoline-2(1H)-one]: 174 nM and 118 ± 34 nM.
Turning to `O=C1Cc2cc(Nc3ncc(C(F)(F)F)c(NC4CC4)n3)ccc2N1` [compound 3, 5-((4-(Cyclopropylamine)-5-(trifluoromethyl)pyrimidin-2-yl)amino)indolin-2-one], the IC50 came out at 1100 ± 454 nM against NanoLuc-ULK2 (NanoBRET) [3] and 704 ± 63 nM in test [4]. Also, the ΔTm at 10 µM in test [5] was determined as 3 ± 1.3 °C.
The matching figures for `COc1cc(Nc2ncc(Br)c(NC3CC3)n2)cc(OC)c1OC` [compound 6, 5-Bromo-N4-cyclopropyl-N2-(3,4,5-trimethoxyphenyl)pyrimidine-2,4-diamine]: 1470 ± 261 nM, 217 ± 108 nM and 7 ± 0.7 °C.
The matching figures for `O=C1CCc2cc(Nc3ncc(Br)c(NC4CC4)n3)ccc2N1` [compound 7, 6-((5-Bromo-4-(cyclopropylamine)pyrimidin-2-yl)amino)-3,4-dihydroquinolin-2(1H)-one]: 1580 ± 325 nM, 896 ± 92 nM and 2 ± 0.8 °C.
Take `O=C1CCc2cc(Nc3nccc(NC4CC4)n3)ccc2N1` [compound 8, 8]: the IC50 was 2330 ± 667 nM in test [6] and > 10000 nM at NanoLuc-ULK1 (NanoBRET).
Consider `O=C1CCc2cc(Nc3ncc(C(F)(F)F)c(NC4CCCC4)n3)ccc2N1` [compound 12, 6-((4-(Cyclopentylamine)-5-(trifluoromethyl)pyrimidin-2-yl)amino)-3,4-dihydroquinolin-2(1H)-one], for which the IC50 in test [6] is 25 ± 6 nM; at NanoLuc-ULK1 (NanoBRET), > 10000 nM.
Regarding `O=C1CCc2cc(Nc3ncc(C(F)(F)F)c(NCC(F)(F)F)n3)ccc2N1` [compound 14, 6-((4-((2,2,2-Trifluoroethyl)amino)-5-(trifluoromethyl)pyrimidin-2-yl)amino)-3,4 dihydroquinolin-2(1H)-one], the values for the IC50 (at NanoLuc-ULK2 (NanoBRET) [3]; in test [4]) were 1820 ± 599 nM and 464 ± 90 nM, respectively. Further, the ΔTm at 10 µM in test [5] was determined as 4 ± 0.1 °C.
Consider `O=C1CCc2cc(Nc3ncc(C(F)(F)F)c(NCCO)n3)ccc2N1` [compound 15, 6-((4-((2-Hydroxyethyl)amino)-5-(trifluoromethyl)pyrimidin-2-yl)amino)-3,4-dihydroquinolin-2(1H)-one], for which the IC50 was determined as 875 ± 131 nM against NanoLuc-ULK2 (NanoBRET) [3] and 980 ± 62 nM in test [4]. Further, the ΔTm at 10 µM in test [5] was 8 ± 0.1 °C.
With `NCCCNc1nc(Nc2ccc3c(c2)CCC(=O)N3)ncc1C(F)(F)F` [compound 19, 6-((4-((3-Aminopropyl)amino)-5-(trifluoromethyl)pyrimidin-2-yl)amino)-3,4 dihydroquinolin-2(1H)-one·HCl], the results for the IC50 (against NanoLuc-ULK2 (NanoBRET) [3]; in test [4]) were 77 ± 13 nM and 480 ± 65 nM, respectively. Besides, the ΔTm at 10 µM in test [5] is 7.5 °C.
Consider `O=C1CCc2cc(Nc3ncc(C(F)(F)F)c(NCCCNC(=O)C4CC4)n3)ccc2N1` [compound 21, N-(3-((2-((2-Oxo-1,2,3,4-tetrahydroquinolin-6-yl)amino)-5-(trifluoromethyl)pyrimidin-4-yl)amino)propyl)cyclopropanecarboxamide], for which the ΔTm at 10 µM in test [5] came out at 8 ± 0.6 °C. Also, the IC50 at NanoLuc-ULK2 (NanoBRET) [1] turned out to be 44 ± 10 nM; in test [2] it was 50 ± 12 nM.

The record behind these values is doi:10.1101/2025.09.05.674519v1 (biorxiv, 2025).
